Laboratory results: ChEMBL document CHEMBL2203135, “Novel progesterone receptor modulators: 4-aryl-phenylsulfonamides” (Bioorg Med Chem Lett, 2012)

Assays:
Progesterone receptor = biological target: T1, Progesterone receptor (Homo sapiens, UniProt P06401); assay: Antagonist activity against progesterone receptor in human T47D cells by alkaline phosphatase assay; assay type: functional, cell-based
T1 sequence (P06401 whole entry): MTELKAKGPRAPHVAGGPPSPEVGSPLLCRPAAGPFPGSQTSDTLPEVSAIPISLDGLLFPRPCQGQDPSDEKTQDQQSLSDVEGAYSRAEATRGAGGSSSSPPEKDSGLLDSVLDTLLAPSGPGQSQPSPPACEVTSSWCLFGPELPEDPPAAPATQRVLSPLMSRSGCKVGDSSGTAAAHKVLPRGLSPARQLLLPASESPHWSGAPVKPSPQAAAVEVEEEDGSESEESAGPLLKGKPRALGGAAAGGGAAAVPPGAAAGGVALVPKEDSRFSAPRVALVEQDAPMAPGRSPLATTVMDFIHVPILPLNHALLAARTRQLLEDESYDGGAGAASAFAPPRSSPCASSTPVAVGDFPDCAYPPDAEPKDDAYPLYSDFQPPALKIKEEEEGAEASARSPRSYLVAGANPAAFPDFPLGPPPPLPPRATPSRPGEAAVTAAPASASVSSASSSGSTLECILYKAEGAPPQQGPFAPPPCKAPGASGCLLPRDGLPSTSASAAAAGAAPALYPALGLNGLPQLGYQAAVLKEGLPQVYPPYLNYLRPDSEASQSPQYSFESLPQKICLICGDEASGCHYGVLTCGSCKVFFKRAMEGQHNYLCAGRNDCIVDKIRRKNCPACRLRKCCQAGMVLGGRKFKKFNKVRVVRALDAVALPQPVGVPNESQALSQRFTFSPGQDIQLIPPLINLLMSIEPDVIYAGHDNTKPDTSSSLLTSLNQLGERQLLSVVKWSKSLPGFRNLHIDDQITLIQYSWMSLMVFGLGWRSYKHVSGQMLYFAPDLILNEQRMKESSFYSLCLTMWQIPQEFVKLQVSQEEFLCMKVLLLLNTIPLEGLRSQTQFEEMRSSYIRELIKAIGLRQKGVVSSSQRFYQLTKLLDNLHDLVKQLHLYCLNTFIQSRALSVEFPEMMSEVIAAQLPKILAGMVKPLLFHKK

[1] = Cmax in rat at 20 mg/kg, po administered as single dose; assay type: ADME, organism-based; set-up: dose 20 mg/kg, route oral; conditions: in vivo
[2] = AUC (0 to infinity) in rat at 20 mg/kg, po administered as single dose; assay type: ADME, organism-based; set-up: time infinity, dose 20 mg/kg, route oral; conditions: plasma
Salmonella typhimurium [3] = assay: Mutagenicity in Salmonella typhimurium in absence of liver S9 fraction by non-GLP Ames test; assay type: toxicity, organism-based; conditions: salmonella enterica subsp. enterica serovar typhimurium
[4] = Half life in rat at 20 mg/kg, po administered as single dose; assay type: ADME, organism-based; set-up: dose 20 mg/kg, route oral; conditions: in vivo
Salmonella typhimurium [5] = assay: Mutagenicity in Salmonella typhimurium in presence of liver S9 fraction by non-GLP Ames test; assay type: toxicity, organism-based; conditions: salmonella enterica subsp. enterica serovar typhimurium
[6] = biological target: T2, Progesterone receptor (Homo sapiens) (UniProt P06401); assay: Antagonist activity against progesterone receptor in human T47D cells at 3 uM by alkaline phosphatase assay; assay type: functional, cell-based
T2 sequence (whole entry): T1 sequence (P06401 whole entry)

| SMILES | IC50 (Progesterone receptor) [nM] | Activity (Salmonella typhimurium [5]) | also measured |
| --- | --- | --- | --- |
| CCS(=O)(=O)Nc1cc(F)c(-c2ccc(C#N)n2C)cc1F | 57 |  |  |
| CCS(=O)(=O)Nc1ccc(-c2ccc(C#N)n2C)cc1 | 9 | Toxic | Cmax [1]: 6.7 µM; AUC(0-inf) [2]: 12300 ng·h/mL; Activity (Salmonella typhimurium [3]): Non-toxic; half-life [4]: 2.5 h |
| Cn1c(C#N)ccc1-c1ccc(NS(C)(=O)=O)cc1 | 8 |  |  |
| Cn1c(C#N)ccc1-c1ccc(NS(C)(=O)=O)c(C#N)c1 | > 3000 |  |  |
| CCS(=O)(=O)Nc1ccc(-c2ccc(C#N)n2C)c(C#N)c1 | 128 |  |  |
| CC(C)c1ccc(S(=O)(=O)Nc2ccc(-c3ccc(C#N)n3C)cc2)cc1 |  |  | inhibition [6]: 54% |
| Cc1ccc(S(=O)(=O)Nc2ccc(-c3ccc(C#N)n3C)cc2)cc1 |  |  | inhibition [6]: 55% |
| CCS(=O)(=O)Nc1ccc(-c2ccc(C#N)n2C)c(F)c1 | 6 |  |  |
| CCS(=O)(=O)Nc1ccc(-c2ccc(C#N)n2C)c(C(F)(F)F)c1 | 12 | Non-toxic |  |
| CC(=O)Nc1ccc(-c2ccc(C#N)n2C)cc1 | 75 |  | Cmax [1]: 0.7 µM; AUC(0-inf) [2]: 1640 ng·h/mL; half-life [4]: 5 h |
| Cn1c(C#N)ccc1-c1ccc(N)cc1 |  | Toxic | Cmax [1]: 3.2 µM; AUC(0-inf) [2]: 3080 ng·h/mL; half-life [4]: 2.5 h |
| Cn1c(C#N)ccc1-c1ccc(NS(C)(=O)=O)cc1F | 8 | Non-toxic | Activity (Salmonella typhimurium [3]): Non-toxic |
| CCCS(=O)(=O)Nc1ccc(-c2ccc(C#N)n2C)cc1 | 10 |  |  |
